Assay results taken from US10609945B2, “Compositions comprising 2FL and LNnT to control food intake and growth in infants or young children” (NESTEC S.A., priority 2016, dated 2020).

Test: Relative intake (total food intake/average body weight) of IUGR rats
Format: in vivo
Settings: diet with 4.5 wt % HMO(s), vs IUGR rats control; for relative intake, period day 22-day 29: FIG. 4A/5A; for relative intake, period day 22-day 36: FIG. 4B/5B
Excerpt: A wide group of pregnant female rats were bought from Charles River laboratories. Some of them were submitted to food restriction of 60% during the last 10 days of gestation. Immediately after birth (d=1), the born rat pups—subjects of the experiment—were split intoseveral groups: • Normal rats (reference): no IUGR (Intrauterine growth restriction) during their mothers' pregnancy (n=20). • IUGR rats (control): […] LNnT or 2FL+LNnT (in a weight ratio 2:1), see details below. All rat pups were fed from birth (d=1) up to 57 days (d=57) based on the following protocol: • day 1-day 6: all groups of rats were nursed by dam (mothers' milk only) • day 7-day 21: all rats were nursed by dam (mothers' milk only). […] To assess the efficiency of the feeding of these rats, especially tosee whether the feeding imply a healthy growth or not, several parameters were calculated, including: • the lean mass: it corresponds to the amount of weight in the body composition that is not fat. It was measured by magnetic resonance imaging. • the relative intake: it corresponds to the total food intake divided by the average body weight of a specified period. It was assessed for several periods during the entire experiment (so the total of food ingested was measured in continuous during several days to make the calculation). Significance was assessed using the […].

Compound | relative intake, period day 22-day 29 | relative intake, period day 22-day 36
2′-fucosyllactose [2FL] | significantly increased | significantly increased
CC(=O)N[C@H]1[C@H](O[C@H]2[C@@H](O)[C@@H](CO)O[C@@H](O[C@H]3[C@H](O)[C@@H](O)C(O)O[C@@H]3CO)[C@@H]2O)O[C@H](CO)[C@@H](O[C@@H]2O[C@H](CO)[C@H](O)[C@H](O)[C@H]2O)[C@@H]1O (mixture of isomers) [LNnT, lacto-N-neotetraose] | significantly increased | significantly increased
